According to ChEMBL document CHEMBL5113513, “Selective Inhibitors of Medium-Size S1' Pocket Matrix Metalloproteinases: A Stepping Stone of Future Drug Discovery” (J Med Chem, 2022):

Key:
[1] = target: T1, Matrix metalloproteinase-14 (Homo sapiens, UniProt P50281); test: Inhibition of MMP-14 (unknown origin)
Matrilysin [2] = target: T2, Matrilysin (Homo sapiens, UniProt P09237); test: Inhibition of MMP-7 (unknown origin)
T2 sequence (P09237 whole entry): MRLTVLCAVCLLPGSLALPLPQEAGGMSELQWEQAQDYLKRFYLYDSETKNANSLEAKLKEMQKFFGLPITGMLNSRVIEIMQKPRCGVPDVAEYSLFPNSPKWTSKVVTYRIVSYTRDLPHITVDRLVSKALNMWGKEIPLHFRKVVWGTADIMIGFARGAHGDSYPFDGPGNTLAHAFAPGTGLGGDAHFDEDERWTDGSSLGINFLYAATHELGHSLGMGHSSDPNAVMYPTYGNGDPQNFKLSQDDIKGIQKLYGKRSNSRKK

[3] = target: T3, 72 kDa type IV collagenase (Homo sapiens, UniProt P08253)
Interstitial collagenase [4] = target: T4, Interstitial collagenase (Homo sapiens, UniProt P03956); test: Inhibition of MMP-1 (unknown origin)
T4 sequence (P03956 whole entry): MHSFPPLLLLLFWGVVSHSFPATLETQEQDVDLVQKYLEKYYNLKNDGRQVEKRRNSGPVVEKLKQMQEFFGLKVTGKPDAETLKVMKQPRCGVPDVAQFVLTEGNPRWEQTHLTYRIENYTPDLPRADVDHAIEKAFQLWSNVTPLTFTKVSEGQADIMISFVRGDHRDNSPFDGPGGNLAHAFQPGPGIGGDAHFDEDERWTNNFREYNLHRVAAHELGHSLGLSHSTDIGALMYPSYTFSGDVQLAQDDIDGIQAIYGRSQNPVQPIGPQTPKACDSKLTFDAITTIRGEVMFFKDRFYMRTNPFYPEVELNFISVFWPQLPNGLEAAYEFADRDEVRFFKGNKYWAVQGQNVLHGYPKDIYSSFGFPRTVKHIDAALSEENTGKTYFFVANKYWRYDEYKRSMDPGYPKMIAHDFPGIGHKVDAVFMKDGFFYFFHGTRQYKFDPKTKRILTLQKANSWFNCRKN

[5] = target: T5, Matrix metalloproteinase-9 (Homo sapiens, UniProt P14780); test: Inhibition of MMP-9 (unknown origin)
Stromelysin-1 [6] = target: T6, Stromelysin-1 (Homo sapiens, UniProt P08254); test: Inhibition of MMP-3 (unknown origin)
Neutrophil collagenase [7] = target: T7, Neutrophil collagenase (Homo sapiens, UniProt P22894); test: Inhibition of MMP-8 (unknown origin)
[8] = target: Macrophage metalloelastase (Homo sapiens, UniProt P39900); test: Inhibition of MMP-12 (unknown origin)
Collagenase 3 [9] = target: T8, Collagenase 3 (Homo sapiens, UniProt P45452)
Description: Inhibition of MMP-13 (unknown origin)

[10] = target: T3, 72 kDa type IV collagenase; test: Inhibition of MMP-2 (unknown origin) using Mca-Pro-Leu-Gly-Leu-Dpa-Ala-Arg-NH2 as substrate by fluorimetric assay
[11] = target: T5, Matrix metalloproteinase-9; test: Inhibition of MMP-9 (unknown origin) using Mca-Pro-Leu-Gly-Leu-Dpa-Ala-Arg-NH2 as substrate by fluorimetric assay
Stromelysin-2 [12] = target: T9, Stromelysin-2 (Homo sapiens, UniProt P09238); test: Inhibition of MMP-10 (unknown origin)
[13] = target: T5, Matrix metalloproteinase-9; test: Inhibition of MMP-9 (unknown origin) catalytic activity using Ac-PLG-[2-mercapto-4-methylpentanoyl]-LG-OC2H5 as substrate and measured upto 30 mins by microplate reader analysis
[14] = target: T3, 72 kDa type IV collagenase; test: Inhibition of MMP-2 (unknown origin) catalytic activity using Ac-PLG-[2-mercapto-4-methylpentanoyl]-LG-OC2H5 as substrate and measured upto 30 mins by microplate reader analysis
Neutrophil collagenase [15] = target: T7, Neutrophil collagenase; test: Inhibition of recombinant human MMP-8 for 3 hrs using colorimetric substrate by ELISA
[16] = target: T3, 72 kDa type IV collagenase; test: Inhibition of human MMP-2 expressed in Escherichia coli BL21(DE3) using Mca-Pro-Leu-Gly-Leu-Dpa-Ala-Arg-NH2 as substrate preincubated for 30 mins followed by susbstrate addition by photon-counter spectrophotometer analysis
[17] = target: T5, Matrix metalloproteinase-9; test: Inhibition of human MMP-9 expressed in Escherichia coli BL21(DE3) using Mca-Pro-Leu-Gly-Leu-Dpa-Ala-Arg-NH2 as substrate preincubated for 30 mins followed by susbstrate addition by photon-counter spectrophotometer analysis
Interstitial collagenase [18] = target: T4, Interstitial collagenase; test: Inhibition of human MMP-1 expressed in Escherichia coli BL21(DE3) using Mca-Pro-Leu-Gly-Leu-Dpa-Ala-Arg-NH2 as substrate preincubated for 30 mins followed by susbstrate addition by photon-counter spectrophotometer analysis
Stromelysin-1 [19] = target: T6, Stromelysin-1; test: Inhibition of human MMP-3 expressed in Escherichia coli BL21(DE3) using Mca-Pro-Leu-Gly-Leu-Dpa-Ala-Arg-NH2 as substrate preincubated for 30 mins followed by susbstrate addition by photon-counter spectrophotometer analysis
[20] = target: T1, Matrix metalloproteinase-14; test: Inhibition of human MMP-14 expressed in Escherichia coli BL21(DE3) using Mca-Pro-Leu-Gly-Leu-Dpa-Ala-Arg-NH2 as substrate preincubated for 30 mins followed by susbstrate addition by photon-counter spectrophotometer analysis
Neutrophil collagenase [21] = target: T7, Neutrophil collagenase; test: Inhibition of human MMP-8 expressed in Escherichia coli BL21(DE3) using Mca-Pro-Leu-Gly-Leu-Dpa-Ala-Arg-NH2 as substrate preincubated for 30 mins followed by susbstrate addition by photon-counter spectrophotometer analysis
Matrilysin [22] = target: T2, Matrilysin; test: Inhibition of human MMP-7 expressed in Escherichia coli BL21(DE3) using Mca-Pro-Leu-Gly-Leu-Dpa-Ala-Arg-NH2 as substrate preincubated for 30 mins followed by susbstrate addition by photon-counter spectrophotometer analysis
Collagenase 3 [23] = target: T8, Collagenase 3; test: Inhibition of human MMP-13 expressed in Escherichia coli BL21(DE3) using Mca-Pro-Leu-Gly-Leu-Dpa-Ala-Arg-NH2 as substrate preincubated for 30 mins followed by susbstrate addition by photon-counter spectrophotometer analysis
Stromelysin-2 [24] = target: T9, Stromelysin-2; test: Inhibition of human MMP-10 expressed in Escherichia coli BL21(DE3) using Mca-Pro-Leu-Gly-Leu-Dpa-Ala-Arg-NH2 as substrate preincubated for 30 mins followed by susbstrate addition by photon-counter spectrophotometer analysis
HT-1080 = test: Inhibition of cell invasion in human HT-1080 cells for 24 hrs by Calcein AM staining based fluorometric analysis; assay type: functional; settings: HT-1080, 24 h

T7 sequence (P22894 whole entry): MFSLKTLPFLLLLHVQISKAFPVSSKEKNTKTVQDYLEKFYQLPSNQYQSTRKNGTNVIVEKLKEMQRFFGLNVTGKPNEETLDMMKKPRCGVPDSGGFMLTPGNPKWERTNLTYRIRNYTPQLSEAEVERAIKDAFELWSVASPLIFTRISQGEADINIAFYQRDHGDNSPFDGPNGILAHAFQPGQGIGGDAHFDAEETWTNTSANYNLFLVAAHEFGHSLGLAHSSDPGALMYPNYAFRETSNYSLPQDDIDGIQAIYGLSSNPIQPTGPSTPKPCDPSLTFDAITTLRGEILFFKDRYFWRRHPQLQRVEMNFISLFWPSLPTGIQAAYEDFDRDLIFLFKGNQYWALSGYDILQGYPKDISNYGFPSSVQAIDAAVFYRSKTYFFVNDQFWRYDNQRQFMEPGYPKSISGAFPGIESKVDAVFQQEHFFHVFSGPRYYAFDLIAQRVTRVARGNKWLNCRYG
T9 sequence (P09238 whole entry): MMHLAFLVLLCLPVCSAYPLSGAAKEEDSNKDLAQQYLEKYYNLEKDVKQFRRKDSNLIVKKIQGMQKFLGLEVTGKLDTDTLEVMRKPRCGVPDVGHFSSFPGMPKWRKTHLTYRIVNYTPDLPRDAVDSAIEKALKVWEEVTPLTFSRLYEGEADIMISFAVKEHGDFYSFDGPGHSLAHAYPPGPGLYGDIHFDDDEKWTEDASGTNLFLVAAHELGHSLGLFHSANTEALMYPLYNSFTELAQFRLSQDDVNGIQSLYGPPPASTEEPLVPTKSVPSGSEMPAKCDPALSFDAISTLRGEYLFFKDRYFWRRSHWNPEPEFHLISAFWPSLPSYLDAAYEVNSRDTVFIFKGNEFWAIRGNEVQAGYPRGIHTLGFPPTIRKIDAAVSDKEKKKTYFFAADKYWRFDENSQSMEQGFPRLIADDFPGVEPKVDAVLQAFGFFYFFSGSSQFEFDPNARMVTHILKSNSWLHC
T5 sequence (P14780 whole entry): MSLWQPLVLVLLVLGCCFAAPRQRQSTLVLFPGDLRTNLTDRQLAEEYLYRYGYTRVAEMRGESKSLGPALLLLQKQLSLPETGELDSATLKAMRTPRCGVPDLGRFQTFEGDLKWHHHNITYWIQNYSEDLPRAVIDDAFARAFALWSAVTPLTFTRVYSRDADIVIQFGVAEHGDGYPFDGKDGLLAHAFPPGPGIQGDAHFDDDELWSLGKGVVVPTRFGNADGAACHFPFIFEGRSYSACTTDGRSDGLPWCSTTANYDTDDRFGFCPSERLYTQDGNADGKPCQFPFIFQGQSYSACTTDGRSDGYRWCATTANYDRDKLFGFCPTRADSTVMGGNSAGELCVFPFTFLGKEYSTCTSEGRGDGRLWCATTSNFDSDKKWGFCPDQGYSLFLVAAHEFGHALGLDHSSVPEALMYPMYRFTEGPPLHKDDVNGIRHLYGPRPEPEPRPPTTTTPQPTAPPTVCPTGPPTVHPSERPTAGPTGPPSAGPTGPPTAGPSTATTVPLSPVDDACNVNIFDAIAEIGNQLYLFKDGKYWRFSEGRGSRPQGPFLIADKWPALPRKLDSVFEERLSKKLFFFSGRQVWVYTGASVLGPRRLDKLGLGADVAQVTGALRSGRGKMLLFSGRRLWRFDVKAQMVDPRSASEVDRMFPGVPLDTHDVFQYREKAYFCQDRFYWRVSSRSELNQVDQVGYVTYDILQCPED
Chain of Macrophage metalloelastase (P39900 whole entry): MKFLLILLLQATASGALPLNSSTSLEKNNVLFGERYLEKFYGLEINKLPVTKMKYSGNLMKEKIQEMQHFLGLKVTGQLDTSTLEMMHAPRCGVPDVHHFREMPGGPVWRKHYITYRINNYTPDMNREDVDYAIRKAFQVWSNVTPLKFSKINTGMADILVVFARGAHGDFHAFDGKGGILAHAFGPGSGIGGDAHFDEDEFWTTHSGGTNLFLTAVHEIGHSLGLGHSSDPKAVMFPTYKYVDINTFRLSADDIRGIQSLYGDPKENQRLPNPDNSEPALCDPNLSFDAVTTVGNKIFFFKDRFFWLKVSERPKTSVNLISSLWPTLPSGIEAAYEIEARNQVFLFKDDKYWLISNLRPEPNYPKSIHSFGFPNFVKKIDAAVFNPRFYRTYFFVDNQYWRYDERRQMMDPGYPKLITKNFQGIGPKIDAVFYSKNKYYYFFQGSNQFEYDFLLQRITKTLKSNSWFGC
T3 sequence (P08253 whole entry): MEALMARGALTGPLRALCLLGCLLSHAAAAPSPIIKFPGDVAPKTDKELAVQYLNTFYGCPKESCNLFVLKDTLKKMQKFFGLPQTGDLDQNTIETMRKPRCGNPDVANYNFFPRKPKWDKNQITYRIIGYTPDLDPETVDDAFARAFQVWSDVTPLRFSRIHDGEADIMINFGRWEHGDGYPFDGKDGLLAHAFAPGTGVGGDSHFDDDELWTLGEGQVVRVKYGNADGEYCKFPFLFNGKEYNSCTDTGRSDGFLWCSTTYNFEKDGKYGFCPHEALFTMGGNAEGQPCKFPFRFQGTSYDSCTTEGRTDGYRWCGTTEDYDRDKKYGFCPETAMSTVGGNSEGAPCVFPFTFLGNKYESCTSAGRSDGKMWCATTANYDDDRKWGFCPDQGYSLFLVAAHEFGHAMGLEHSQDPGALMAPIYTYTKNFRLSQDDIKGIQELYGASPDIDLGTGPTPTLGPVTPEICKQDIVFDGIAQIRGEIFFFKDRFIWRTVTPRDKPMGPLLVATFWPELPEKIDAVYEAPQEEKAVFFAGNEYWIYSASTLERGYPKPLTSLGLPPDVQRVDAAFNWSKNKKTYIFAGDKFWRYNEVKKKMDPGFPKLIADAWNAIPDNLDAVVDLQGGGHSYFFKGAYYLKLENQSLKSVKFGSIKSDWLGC
T6 sequence (P08254 whole entry): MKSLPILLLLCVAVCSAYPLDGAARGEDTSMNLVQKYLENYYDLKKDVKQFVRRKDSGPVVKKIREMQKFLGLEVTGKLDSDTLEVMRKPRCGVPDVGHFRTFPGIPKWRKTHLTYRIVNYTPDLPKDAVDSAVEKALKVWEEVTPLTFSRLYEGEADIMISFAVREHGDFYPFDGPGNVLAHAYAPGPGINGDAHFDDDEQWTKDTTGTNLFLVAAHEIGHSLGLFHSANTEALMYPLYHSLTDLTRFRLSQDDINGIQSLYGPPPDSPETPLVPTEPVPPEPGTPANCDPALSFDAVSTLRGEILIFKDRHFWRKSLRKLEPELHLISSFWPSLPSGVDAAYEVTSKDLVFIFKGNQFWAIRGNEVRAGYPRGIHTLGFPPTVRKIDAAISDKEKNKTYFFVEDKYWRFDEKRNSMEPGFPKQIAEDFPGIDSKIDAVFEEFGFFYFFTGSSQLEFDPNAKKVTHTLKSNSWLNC

SMILES: CC(C)ON([C@@H](CCNC(=O)OCc1ccccc1)C(=O)NO)S(=O)(=O)c1ccc(-c2ccccc2)cc1
- IC50 [1]: 7.7 nM
- IC50 (Matrilysin [2]): 10000 nM
- IC50 [3]: 0.41 nM
- IC50 (Interstitial collagenase [4]): > 3000 nM
- IC50 [5]: 16 nM
- IC50 (Stromelysin-1 [6]): 130 nM

SMILES: C=CC[C@H](C(=O)NO)C(CC(C)C)C(=O)N[C@@H](Cc1ccccc1)C(=O)NC (stereo not given in full)
- IC50 (Neutrophil collagenase [7]): 3 nM
- Ki (Neutrophil collagenase [7]): 3 nM
- Ki [1]: 10 nM
- IC50 (Matrilysin [2]): 30 nM
- Ki (Matrilysin [2]): 60 nM
- IC50 [3]: 5 nM
- Ki [3]: 4 nM
- IC50 (Interstitial collagenase [4]): 10 nM
- Ki (Interstitial collagenase [4]): 8 nM
- IC50 [5]: 3 nM
- Ki [5]: 3 nM
- Ki [8]: 5 nM
- IC50 (Stromelysin-1 [6]): 30 nM
- Ki (Stromelysin-1 [6]): 30 nM
- Ki (Collagenase 3 [9]): 7 nM

SMILES: CC(=O)Nc1ccc(Oc2ccc(S(=O)(=O)CC3CS3)cc2)cc1 (stereo not given)
- Ki [1]: > 230000 nM
- Ki (Interstitial collagenase [4]): > 154000 nM
- Ki (Stromelysin-1 [6]): > 188000 nM

SMILES: NCCCCC(NS(=O)(=O)c1ccc(-c2ccccc2)cc1)C(=O)O (stereo not given)
- IC50 [10]: 900 nM
- IC50 [11]: 40000 nM

SMILES: COc1ccc(-c2cn(-c3ccc(S(=O)(=O)C4(C(=O)NO)CCOCC4)cc3)nn2)cc1
- IC50 (Neutrophil collagenase [7]): 6.1 nM
- IC50 [1]: 8.2 nM
- IC50 (Matrilysin [2]): 70 nM
- IC50 (Stromelysin-2 [12]): 7.8 nM
- IC50 (Interstitial collagenase [4]): > 1000 nM
- IC50 [13]: 11.3 nM
- IC50 [8]: 1.2 nM
- IC50 [14]: 0.3 nM
- IC50 (Stromelysin-1 [6]): 9.6 nM
- IC50 (Collagenase 3 [9]): 1.4 nM

SMILES: CN1C(=O)N(C[C@H](C(=O)NO)[C@H](CC2CCCC2)C(=O)N2CCCCC2)C(=O)C1(C)C
- Ki (Neutrophil collagenase [7]): 4 nM

SMILES: O=C(CCC(NS(=O)(=O)c1ccc(-c2ccccc2)cc1)C(=O)O)NCc1ccccc1 (stereo not given)
- IC50 [5]: 0.704 nM

SMILES: O=C(CS(=O)(=O)c1ccc(-c2ccccc2)cc1)NO
- IC50 [1]: 376 nM
- IC50 (Matrilysin [2]): 24 nM
- IC50 [3]: 6 nM
- IC50 (Interstitial collagenase [4]): 1800 nM
- IC50 [5]: 140 nM
- IC50 (Stromelysin-1 [6]): 200 nM
- IC50 (Collagenase 3 [9]): 9.8 nM

SMILES: O=C(NO)C(Cc1ccccc1)NS(=O)(=O)c1ccc(-c2cn(-c3ccc(-c4ccccc4)cc3)nn2)cc1 (stereo not given)
- IC50 (Neutrophil collagenase [7]): > 500 nM
- IC50 [1]: 556 nM
- IC50 (Matrilysin [2]): > 500 nM
- IC50 (Stromelysin-2 [12]): 181 nM
- IC50 (Interstitial collagenase [4]): > 10000 nM
- IC50 [13]: 5.54 nM
- IC50 [8]: 3.8 nM
- IC50 [14]: 1.3 nM
- IC50 (Stromelysin-1 [6]): 50 nM
- IC50 (Collagenase 3 [9]): < 5 nM

SMILES: COc1ccc(S(=O)(=O)N(Cc2ccccc2)[C@@H](C(=O)NO)C(C)C)cc1
- IC50 [8]: 7.7 nM
- IC50 (Stromelysin-1 [6]): 13 nM

SMILES: CNC(=O)[C@@H](NC(=O)[C@H](CC(C)C)[C@H](O)C(=O)NO)C(C)(C)C
- IC50 [1]: 1.8 nM

SMILES: O=C(NC1CCC1)P(=O)(O)O [(CYCLOBUTYLAMINO)CARBONYLPHOSPHONIC ACID]
- IC50 (Neutrophil collagenase [15]): 4 nM

SMILES: NC(=O)[C@H](CCC(=O)O)NC(=O)[C@@H](CCC(=O)O)NC(=O)CCc1cc(-c2ccc(-c3cccc(Cl)c3)cc2)no1
- Ki [16]: 76 nM
- Ki [17]: 565 nM
- Ki (Interstitial collagenase [18]): 17900 nM
- Ki (Stromelysin-1 [19]): 62 nM
- Ki [20]: 2060 nM
- Ki (Neutrophil collagenase [21]): 181 nM
- Ki (Matrilysin [22]): 1200 nM
- Ki (Collagenase 3 [23]): 40 nM
- Ki (Stromelysin-2 [24]): 48 nM

SMILES: C[C@H]1c2cccc(O)c2C(=O)C2=C(O)[C@]3(O)C(=O)C(C(N)=O)=C(O)[C@@H](N(C)C)[C@@H]3[C@@H](O)[C@@H]21 [DOXYCYCLINE]
- IC50 (Neutrophil collagenase [7]): 26000 nM
- IC50 (HT-1080): 21400 nM
- IC50 (Matrilysin [2]): 28000 nM
- IC50 [3]: 56000 nM
- IC50 (Interstitial collagenase [4]): > 400000 nM
- IC50 (Stromelysin-1 [6]): 32000 nM
- IC50 (Collagenase 3 [9]): 20000 nM
